Patent US20240158446A1, “CYCLIC COMPOUND HAVING SELECTIVE INHIBITORY ACTION ON KRAS OVER HRAS AND NRAS” (CHUGAI SEIYAKU KABUSHIKI KAISHA, priority 2021, published 2024)

Experiments:
[1] = target: GDP-bound NRAS wild-type protein (Homo sapiens, UniProt P01111); assay: Binding to NRAS by surface plasmon resonance (SPR), Single Cycle Kinetics; conditions: ratio of KD for GDP-bound NRAS wild-type protein to KD for KRAS, SPR
[2] = tested on: human lung cancer strain NCI-H441; assay: cells; conditions: NCI-H441, 96 h, read-out: NCI-H441 IC50 (nM), NCI-H441 cell proliferation, 4 days, CellTiter-Glo;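 note: cell proliferation inhibition after four days measured by CellTiter-Glo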
[3] = target: GDP-bound KRAS wild-type protein (Homo sapiens, UniProt P01116); assay: Binding to KRAS by surface plasmon resonance (SPR), Single Cycle Kinetics; conditions: SPR, Single Cycle Kinetics, GDP-bound KRAS wild-type protein; read-out: KRAS KD
Sequence of GDP-bound KRAS wild-type protein (P01116 whole entry): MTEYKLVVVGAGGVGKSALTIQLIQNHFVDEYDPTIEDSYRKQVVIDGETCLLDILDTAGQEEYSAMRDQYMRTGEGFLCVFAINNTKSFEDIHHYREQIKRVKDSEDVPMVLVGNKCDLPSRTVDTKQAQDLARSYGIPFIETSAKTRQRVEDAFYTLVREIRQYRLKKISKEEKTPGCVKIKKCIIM

[4] = target: GDP-bound HRAS wild-type protein (Homo sapiens, UniProt P01112); assay: Binding to HRAS by surface plasmon resonance (SPR), Single Cycle Kinetics; conditions: ratio of KD for GDP-bound HRAS wild-type protein to KD for KRAS, SPR
Sequence of GDP-bound HRAS wild-type protein (P01112 whole entry): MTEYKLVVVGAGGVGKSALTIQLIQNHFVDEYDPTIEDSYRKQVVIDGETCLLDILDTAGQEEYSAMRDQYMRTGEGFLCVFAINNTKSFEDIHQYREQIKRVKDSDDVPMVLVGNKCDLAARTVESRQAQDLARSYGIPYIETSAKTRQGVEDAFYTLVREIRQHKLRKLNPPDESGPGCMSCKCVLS

Sequence of GDP-bound NRAS wild-type protein (P01111 whole entry): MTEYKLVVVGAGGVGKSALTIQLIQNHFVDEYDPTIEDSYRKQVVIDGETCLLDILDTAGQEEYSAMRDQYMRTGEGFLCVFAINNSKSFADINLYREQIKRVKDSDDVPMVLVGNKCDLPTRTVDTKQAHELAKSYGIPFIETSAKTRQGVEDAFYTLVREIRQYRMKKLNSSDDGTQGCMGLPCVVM

Row | SMILES | NRAS/KRAS (KD ratio) [1] | IC50 [2] | Kd [3] | HRAS/KRAS (KD ratio) [4]
1 | CCO[C@@H]1C[C@H]2C(=O)NC3(CC(C)(C)C3)C(=O)N(C)[C@@H](C3CCCC3)C(=O)N(C)[C@H](C(=O)N(C)CC)CC(=O)N(C)[C@@H](CC)C(=O)N[C@@H]([C@@H](C)CC)C(=O)N(C)CC(=O)N(C)[C@H]3C/C=C\CCN(C3=O)[C@@H](Cc3ccc(C)cc3)C(=O)N(C)CC(=O)N[C@@H](CCc3ccc(C(F)(F)F)c(Cl)c3)C(=O)N2C1 [PP1880] | A (a compound having 10 or more and less than 20 is denoted as A) | 15.6 nM | 0.15 nM | B (a compound having 3 or more and less than 10 is denoted as B)
2 | CCO[C@@H]1C[C@H]2C(=O)NC3(CC(C)(C)C3)C(=O)N(C)[C@@H](C3CCCC3)C(=O)N(C)[C@H](C(=O)N(CC)CC)CC(=O)N(C)[C@@H](CC)C(=O)N[C@@H]([C@@H](C)CC)C(=O)N(C)CC(=O)N(C)[C@H]3C/C=C\CCN(C3=O)[C@@H](Cc3ccc(C)cc3)C(=O)N(C)CC(=O)N[C@@H](CCc3ccc(C(F)(F)F)c(OC)c3)C(=O)N2C1 [PP1881] | A (a compound having 10 or more and less than 20 is denoted as A) | 16.7 nM | 0.29 nM | A (a compound having 10 or more and less than 20 is denoted as A)
3 | CCO[C@@H]1C[C@H]2C(=O)NC3(CC(C)(C)C3)C(=O)N(C)[C@@H](C3CCCC3)C(=O)N(C)[C@H](C(=O)N(CC)CC)CC(=O)N(C)[C@@H](CC)C(=O)N[C@@H]([C@@H](C)CC)C(=O)N(C)CC(=O)N(C)[C@H]3C/C=C\CCN(C3=O)[C@@H](Cc3ccc(C)cc3)C(=O)N(C)CC(=O)N[C@@H](CCc3ccc(C(F)(F)F)c(Cl)c3)C(=O)N2C1 [PP1883] | A (a compound having 10 or more and less than 20 is denoted as A) | 24 nM | 0.28 nM | A (a compound having 10 or more and less than 20 is denoted as A)
4 | CC[C@H](C)[C@@H]1NC(=O)[C@H](CC(C)C)N(C)C(=O)C[C@@H](C(=O)N(CC)CC)N(C)C(=O)[C@H](C2CCCC2)N(C)C(=O)C2(CCC2)NC(=O)[C@@H]2C[C@H](C)CN2C(=O)[C@H](CCc2ccc(C(F)(F)F)c(OC)c2)NC(=O)CN(C)C(=O)[C@H](Cc2ccc(C)cc2)N2CC/C=C\C[C@@H](C2=O)N(C)C(=O)CN(C)C1=O [PP1885] | AA (a compound having 20 or more is denoted as AA) | 18.3 nM | 0.23 nM | A (a compound having 10 or more and less than 20 is denoted as A)
5 | CCO[C@@H]1C[C@H]2C(=O)NC3(CC(C)(C)C3)C(=O)N(C)[C@@H](C3CCCC3)C(=O)N(C)[C@H](C(=O)N(C)CC)CC(=O)N(C)[C@@H](CC)C(=O)N[C@@H]([C@@H](C)CC)C(=O)N(C)CC(=O)N(C)[C@H]3C/C=C\CCN(C3=O)[C@@H](Cc3ccc(C)cc3)C(=O)N(C)CC(=O)N[C@@H](CCc3cc(F)c(C(F)(F)F)c(F)c3)C(=O)N2C1 [PP1886] | A (a compound having 10 or more and less than 20 is denoted as A) | 1.9 nM | 0.12 nM | B (a compound having 3 or more and less than 10 is denoted as B)
6 | CCC[C@H]1C(=O)N[C@@H]([C@@H](C)CC)C(=O)N(C)CC(=O)N(C)[C@H]2C/C=C\CCN(C2=O)[C@@H](Cc2ccc(C)cc2)C(=O)N(C)CC(=O)N[C@@H](CCc2ccc(C(F)(F)F)c(OC)c2)C(=O)N2C[C@@H](C)C[C@H]2C(=O)NC2(CC(C)(C)C2)C(=O)N(C)[C@@H](C2CCCC2)C(=O)N(C)[C@H](C(=O)N(C)CC)CC(=O)N1C [PP1889] | A (a compound having 10 or more and less than 20 is denoted as A) | 12.5 nM | 0.21 nM | B (a compound having 3 or more and less than 10 is denoted as B)
7 | CCC[C@H]1C(=O)N[C@@H]([C@@H](C)CC)C(=O)N(C)CC(=O)N(C)[C@H]2C/C=C\CCN(C2=O)[C@@H](Cc2ccc(C)cc2)C(=O)N(C)CC(=O)N[C@@H](CCc2ccc(C(F)(F)F)c(OC)c2)C(=O)N2C[C@H](C)C[C@H]2C(=O)NC2(CC(C)(C)C2)C(=O)N(C)[C@@H](C2CCCC2)C(=O)N(C)[C@H](C(=O)N(C)CC)CC(=O)N1C [PP1891] | A (a compound having 10 or more and less than 20 is denoted as A) | 2.6 nM | 0.29 nM | A (a compound having 10 or more and less than 20 is denoted as A)
8 | CCC[C@H]1C(=O)N[C@@H]([C@@H](C)CC)C(=O)N(C)CC(=O)N(C)[C@H]2C/C=C\CCN(C2=O)[C@@H](Cc2ccc(C)cc2)C(=O)N(C)CC(=O)N[C@@H](CCc2ccc(C(F)(F)F)c(OC)c2)C(=O)N2C[C@H](OCC)C[C@H]2C(=O)NC2(CC(C)(C)C2)C(=O)N(C)[C@@H](C2CCCC2)C(=O)N(C)[C@H](C(=O)N(C)C)CC(=O)N1C [PP1892] | A (a compound having 10 or more and less than 20 is denoted as A) | 4.8 nM | 0.074 nM | B (a compound having 3 or more and less than 10 is denoted as B)
9 | CCC[C@H]1C(=O)N[C@@H]([C@@H](C)CC)C(=O)N(C)CC(=O)N(C)[C@H]2C/C=C\CCN(C2=O)[C@@H](Cc2ccc(C)cc2)C(=O)N(C)CC(=O)N[C@@H](CCc2ccc(C(F)(F)F)c(Cl)c2)C(=O)N2C[C@@H](C)C[C@H]2C(=O)NC2(CC(C)(C)C2)C(=O)N(C)[C@@H](C2CCCC2)C(=O)N(C)[C@H](C(=O)N(C)CC)CC(=O)N1C [PP1893] | A (a compound having 10 or more and less than 20 is denoted as A) | 18.5 nM | 0.17 nM | B (a compound having 3 or more and less than 10 is denoted as B)
10 | CCC[C@H]1C(=O)N[C@@H]([C@@H](C)CC)C(=O)N(C)CC(=O)N(C)[C@H]2C/C=C\CCN(C2=O)[C@@H](Cc2ccc(C)cc2)C(=O)N(C)CC(=O)N[C@@H](CCc2ccc(C(F)(F)F)c(Cl)c2)C(=O)N2C[C@H](OCC)C[C@H]2C(=O)NC2(CCC2)C(=O)N(C)[C@@H](C2CCCC2)C(=O)N(C)[C@H](C(=O)N(C)CC)CC(=O)N1C [PP1895] | A (a compound having 10 or more and less than 20 is denoted as A) | 15.6 nM | 0.13 nM | B (a compound having 3 or more and less than 10 is denoted as B)
11 | CCC[C@H]1C(=O)N[C@@H]([C@@H](C)CC)C(=O)N(C)CC(=O)N(C)[C@H]2C/C=C\CCN(C2=O)[C@@H](Cc2ccc(C)cc2)C(=O)N(C)CC(=O)N[C@@H](CCc2ccc(C(F)(F)F)c(Cl)c2)C(=O)N2C[C@H](OCC)C[C@H]2C(=O)NC2(CC(C)(C)C2)C(=O)N(C)[C@@H](C2CCCC2)C(=O)N(C)[C@H](C(=O)N(C)C)CC(=O)N1C [PP1896] | A (a compound having 10 or more and less than 20 is denoted as A) | 5.3 nM | 0.06 nM | B (a compound having 3 or more and less than 10 is denoted as B)
12 | CC[C@H](C)[C@@H]1NC(=O)[C@H](CC2CC2)N(C)C(=O)C[C@@H](C(=O)N(C)C)N(C)C(=O)[C@H](C2CCCC2)N(C)C(=O)C2(CC(C)(C)C2)NC(=O)[C@@H]2C[C@H](C)CN2C(=O)[C@H](CCc2ccc(C(F)(F)F)c(OC)c2)NC(=O)CN(C)C(=O)[C@H](Cc2ccc(C)cc2)N2CC/C=C\C[C@@H](C2=O)N(C)C(=O)CN(C)C1=O [PP1898] | B (a compound having 3 or more and less than 10 is denoted as B) | 6.3 nM | 0.13 nM | B (a compound having 3 or more and less than 10 is denoted as B)
13 | CC[C@H](C)[C@@H]1NC(=O)[C@H](CC(C)C)N(C)C(=O)C[C@@H](C(=O)N(C)CC)N(C)C(=O)[C@H](C2CCCC2)N(C)C(=O)C2(CCC2)NC(=O)[C@@H]2C[C@H](C)CN2C(=O)[C@H](CCc2ccc(C(F)(F)F)c(OC)c2)NC(=O)CN(C)C(=O)[C@H](Cc2ccc(C)cc2)N2CC/C=C\C[C@@H](C2=O)N(C)C(=O)CN(C)C1=O [PP1904] | A (a compound having 10 or more and less than 20 is denoted as A) | 18.3 nM | 0.12 nM | B (a compound having 3 or more and less than 10 is denoted as B)
14 | CC[C@H](C)[C@@H]1NC(=O)[C@H](CC(C)C)N(C)C(=O)C[C@@H](C(=O)N(C)CC)N(C)C(=O)[C@H](C2CCCC2)N(C)C(=O)C2(CC(C)(C)C2)NC(=O)[C@@H]2C[C@H](C)CN2C(=O)[C@H](CCc2ccc(C(F)(F)F)c(OC)c2)NC(=O)CN(C)C(=O)[C@H](Cc2ccc(C)cc2)N2CC/C=C\C[C@@H](C2=O)N(C)C(=O)CN(C)C1=O [PP1906] | A (a compound having 10 or more and less than 20 is denoted as A) | 10.8 nM | 0.15 nM | A (a compound having 10 or more and less than 20 is denoted as A)
15 | CC[C@H](C)[C@@H]1NC(=O)[C@H](CC(C)C)N(C)C(=O)C[C@@H](C(=O)N(C)CC)N(C)C(=O)[C@H](C2CCCC2)N(C)C(=O)C2(CCC2)NC(=O)[C@@H]2C[C@@H](C)CN2C(=O)[C@H](CCc2ccc(C(F)(F)F)c(OC)c2)NC(=O)CN(C)C(=O)[C@H](Cc2ccc(C)cc2)N2CC/C=C\C[C@@H](C2=O)N(C)C(=O)CN(C)C1=O [PP1907] | AA (a compound having 20 or more is denoted as AA) | 23.6 nM | 0.17 nM | A (a compound having 10 or more and less than 20 is denoted as A)
16 | CC[C@H](C)[C@@H]1NC(=O)[C@H](CC(C)C)N(C)C(=O)C[C@@H](C(=O)N(C)C)N(C)C(=O)[C@H](C2CCCC2)N(C)C(=O)C2(CC(C)(C)C2)NC(=O)[C@@H]2C[C@@H](C)CN2C(=O)[C@H](CCc2ccc(C(F)(F)F)c(OC)c2)NC(=O)CN(C)C(=O)[C@H](Cc2ccc(C)cc2)N2CC/C=C\C[C@@H](C2=O)N(C)C(=O)CN(C)C1=O [PP1908] | A (a compound having 10 or more and less than 20 is denoted as A) | 10.1 nM | 0.11 nM | B (a compound having 3 or more and less than 10 is denoted as B)
